Assay results from US12497403B2, “Factor XIa inhibitors” (Merck Sharp & Dohme LLC, priority 2021, dated 2025).
Values after ≈ are worked out from the molar mass of the structure shown. Where two headings read alike, the source gives them in different places.

How the values were obtained:
Human plasma kallikrein = target: T1, Human plasma kallikrein (Homo sapiens, UniProt P03952); experiment: Kallikrein assay (plasma kallikrein); assay type: biochemical; conditions: purified Human plasma kallikrein 0.5 nM, Acetyl-K-P-R-AFC substrate, pH 7.4; read-out: pKal IC50
T1 construct: yields a heavy chain (371 amino acids) and a light chain (248 amino acids); purchased Enzyme Research Laboratories
Procedure: (§1) The effectiveness of a compound of the present invention as an inhibitor of Kallikrein can be determined using a relevant purified serine protease, and an appropriate synthetic substrate. The rate of hydrolysis of the chromogenic or fluorogenic substrate by the relevant serine protease was measured both in the absence and presence of compounds of the present invention. Assays were conducted at room temperature or at 37° C. […] A decrease in the rate of fluorescence change in the presence of inhibitor is indicative of enzyme inhibition. Such methods are known to one skilled in the art. The results of this assay are expressed as the half-maximal inhibitory concentrations (IC50), or the inhibitory constant. Ki.
Kallikrein determinations were made in 50 mM HEPES buffer at pH 7.4 containing 150 mM NaCl, 5 mM CaCl2, and 0.1% PEG 8000 (polyethylene glycol; Fisher Scientific). Determinations were made using purified Human plasma kallikrein at a final concentration of 0.5 nM (Enzyme Research Laboratories) and the synthetic substrate. Acetyl-K-P-R-AFC (Sigma # C6608) at a concentration of […].
Activity assays were performed by diluting a stock solution of substrate at least tenfold to a final concentration≤ 0.2 Km into a solution containing enzyme or enzyme equilibrated with inhibitor. Times required to achieve equilibration between enzyme and inhibitor were determined in control experiments. The reactions were performed under linear progress curve conditions and fluorescence increase measured at 405 Ex/510 Em nm. Values were converted to percent inhibition of the control reaction (after subtracting 100% Inhibition value). IC50 was determined by inflection point from a four parameter logistic curve fit. Ki was calculated using the Cheng Prusoff equation. Ki=IC50/(1+([S]/Km)).

[1] = High-throughput (HT) solubility determination; assay type: physicochemical; conditions: kinetic from dmso stock
Procedure: The chromatographic system consists of an Agilent 1290 UPLC/DAD system and ChemStation software, both from Agilent Technologies, USA. The separations are carried out on a Supelco Ascentis Express C18, 30 mm×3.0 mm I.D., 2.7 μm HPLC column. The mobile phase consists of Potassium phosphate buffered at pH 7 (mobile phase A) and acetonitrile (mobile phase B). The column oven temperature is set to 30° C. and the UPLC analysis consists of a gradient. The injection volume is 2 μL and the spectrophotometric detection is set to 215 and 238 nm.
A 10 mM stock solution of the compound in DMSO is supplied for analysis. 2.5 μL of stock solution (10 mM) was diluted into 247.5 μL of organic co-solvents (10% MeCN/80% MeOH/10% DMSO, v/v/v) to create a standard solution of 100 μM. To create the solubility solutions, 4.1 μL of 10 mM DMSO stock solution was diluted into […] of phosphate buffered saline (PBS) (pH 7) solution. A second 4.1 μL aliquot of 10 mM DMSO stock solution was added to 196 μL of PBS (pH 2) solution. A third 4.1 uL aliquot of 10 mM DMSO stock solution was added to 196 uL of FaSSIF (pH 6.5) solution. […] The equilibrated solubility solutions were filtered by centrifugation using a filter (0.45 μm, polypropylene). 50 μL each of the 100 μM standard solution and the filtered equilibrated solubility solutions were placed into a 384 well plate, and the plate was subsequently heat sealed.
Each standard and solubility solution was analyzed by UPLC/DAD. The solubility value was calculated by the following equation: Solubility=(Peak area of sample/Peak area of standard) (Standard concentration)

human Factor XIa = human Factor XIa (Homo sapiens, UniProt P03951); experiment: Factor XIa assay; assay type: biochemical; conditions: human Factor XIa 0.04 nM, GPR-AFC substrate, 25° C., pH 7.4; read-out: FXIa IC50
Procedure: as §1, with “Coagulation Factor XIa” for “Kallikrein”, “constant,” for “constant.”
Compounds were pre-incubated for 30 minutes at 25° C. with human (0.04 nM) Factor XIa in 50 mM HEPES buffer with 150 mM sodium chloride, 5 mM calcium chloride, 0.1% PEG 8000, pH 7.4. Factor XIa enzymatic activity was determined by addition of the substrate glycine-proline-arginine-7-amido-4-trifluoromethylcoumarin (GPR-AFC) and measurement of the fluorescence at 400/505 nm after a 60 minute incubation at 25° C. The % inhibition for each data point was calculated from the data and analyzed using the log (inhibitor) vs. response four parameters equation to determine the half-maximal inhibitory concentrations (IC50). The IC50 were converted to equilibrium inhibitory constants (Ki) using the Cheng-Prusoff equation.

[2] = FaSSIF pH 6.5, shaken 24 hours at 25° C., read-out: pH 6.5 (FaSSIF) solubility
[3] = phosphate buffered saline (PBS) pH 2, aqueous buffer, PBS pH 2, shaken 24 hours at 25° C., read-out: pH 2 solubility

T1 sequence (P03952 391-638 limits assumed): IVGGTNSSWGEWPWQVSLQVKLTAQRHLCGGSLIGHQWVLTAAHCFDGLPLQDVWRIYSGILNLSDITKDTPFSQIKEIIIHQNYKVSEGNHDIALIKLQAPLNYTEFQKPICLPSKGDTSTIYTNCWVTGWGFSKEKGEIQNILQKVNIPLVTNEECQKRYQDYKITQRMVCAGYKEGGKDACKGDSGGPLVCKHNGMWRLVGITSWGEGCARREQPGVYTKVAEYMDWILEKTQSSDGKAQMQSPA
T1 sequence (P03952 20-390 partner limits assumed): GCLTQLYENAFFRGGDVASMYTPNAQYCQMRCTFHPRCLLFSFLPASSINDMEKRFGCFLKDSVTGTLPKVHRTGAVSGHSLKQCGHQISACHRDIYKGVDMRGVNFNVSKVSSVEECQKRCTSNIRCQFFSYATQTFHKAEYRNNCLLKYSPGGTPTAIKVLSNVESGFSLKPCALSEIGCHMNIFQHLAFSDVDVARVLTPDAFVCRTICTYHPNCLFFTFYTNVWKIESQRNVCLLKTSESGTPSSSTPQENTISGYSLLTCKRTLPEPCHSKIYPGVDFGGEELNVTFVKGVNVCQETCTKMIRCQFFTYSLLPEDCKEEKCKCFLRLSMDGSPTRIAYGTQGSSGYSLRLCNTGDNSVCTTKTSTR
human Factor XIa, sequence (P03951 388-625 limits assumed): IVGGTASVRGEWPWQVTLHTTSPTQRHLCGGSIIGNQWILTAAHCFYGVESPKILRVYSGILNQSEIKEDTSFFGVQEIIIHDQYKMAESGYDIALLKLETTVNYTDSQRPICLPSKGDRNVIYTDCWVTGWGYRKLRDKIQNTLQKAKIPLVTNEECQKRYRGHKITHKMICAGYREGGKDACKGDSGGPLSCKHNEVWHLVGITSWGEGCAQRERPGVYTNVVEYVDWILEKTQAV
human Factor XIa, sequence (P03951 19-387 partner limits assumed): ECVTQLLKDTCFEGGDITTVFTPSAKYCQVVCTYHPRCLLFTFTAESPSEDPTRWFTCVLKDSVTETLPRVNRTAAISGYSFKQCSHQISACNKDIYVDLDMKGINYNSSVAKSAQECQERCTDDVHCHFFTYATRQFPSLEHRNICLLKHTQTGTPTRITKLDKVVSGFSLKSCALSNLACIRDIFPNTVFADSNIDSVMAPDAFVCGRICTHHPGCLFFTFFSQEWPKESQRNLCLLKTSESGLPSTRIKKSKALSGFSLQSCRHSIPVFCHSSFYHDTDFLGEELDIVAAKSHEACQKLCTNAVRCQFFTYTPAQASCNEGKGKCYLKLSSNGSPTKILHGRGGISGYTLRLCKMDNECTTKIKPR

Row | SMILES | IC50 (Human plasma kallikrein) | solubility kinetic at 24 h [1, 2] | solubility kinetic at 24 h [1, 3] | IC50 (human Factor XIa)
1 | COC(=O)Nc1ccc2c(c1)NC(=O)C(C)(C)CCC[C@H](c1ccc(-c3cc(F)ccc3OC(F)F)c[n+]1[O-])c1nc-2c(C(=O)O)[nH]1.N (single isomer, unassigned) [Example 7] | 4.4 nM | 170 µM | 145 µM | 0.16 nM
2 | COC(=O)Nc1ccc2c(c1)NC(=O)C(C)(C)CCC[C@H](c1ccc(-c3cc(F)ccc3-n3cc(C(F)(F)F)cn3)c[n+]1[O-])c1nc-2c(C(=O)O)[nH]1 [Example 8, (R,Z)-2-(1^5-carboxy-2^4-((methoxycarbonyl)amino)-5,5-dimethyl-4-oxo-1^1H-3-aza-1(4,2)-imidazola-2(1,2)-benzenacyclononaphane-9-yl)-5-(5-fluoro-2-(4-(trifluoromethyl)-1H -pyrazol-1-yl)phenyl)pyridine 1-oxide] | 544 nM | 141 µM (≈ 102 µg/mL) | 154 µM (≈ 111 µg/mL) | 0.39 nM
3 | COC(=O)Nc1ccc2c(c1)NC(=O)C(C)(C)CCC[C@H](c1ccc(-c3cccc(Cl)c3F)c[n+]1[O-])c1nc-2c(C(=O)O)[nH]1 [Example 9, (R,Z)-2-(1^5-carboxy-2^4-((methoxycarbonyl)amino)-5,5-dimethyl-4-oxo-1^1H-3-aza-1(4,2)-imidazola-2(1,2)-benzenacyclononaphane-9-yl)-5-(3-chloro-2-fluorophenyl)pyridine 1-oxide] | 1.1 nM | 138 µM (≈ 85.8 µg/mL) | 125 µM (≈ 77.8 µg/mL) | 0.25 nM
